Measurements: ChEMBL document CHEMBL1155647, “New eudesmane sesquiterpenes from Plectranthus cylindraceus” (J Nat Prod, 2000)
Calls of active or inactive are those of the source.

What was measured:
[1] = test system: Candida albicans; test: Antimicrobial activity against Candida albicans ATCC 10231 at 100 ug/mL by agar dilution assay; type: functional, organism-based
[2] = test system: Pseudomonas aeruginosa; test: Antimicrobial activity against Pseudomonas aeruginosa ATCC 15442 at 100 ug/mL by agar dilution assay; type: functional, organism-based
[3] = test system: Mycolicibacterium smegmatis; test: Antimicrobial activity against Mycobacterium smegmatis ATCC 35797 at 100 ug/mL by agar dilution assay; type: functional, organism-based
[4] = test system: Escherichia coli; test: Antimicrobial activity against Escherichia coli ATCC 25922 at 100 ug/mL by agar dilution assay; type: functional, organism-based
[5] = test system: Staphylococcus aureus; test: Antimicrobial activity against Staphylococcus aureus ATCC 29213 at 100 ug/mL by agar dilution assay; type: functional, organism-based
[6] = test system: Bacillus subtilis; test: Antimicrobial activity against Bacillus subtilis ATCC 6633 at 100 ug/mL by agar dilution assay; type: functional, organism-based
[7] = test system: NCI-H460; test: Anticancer activity against human NCI-H460 cells; type: functional, cell-based
[8] = test system: SF-268; test: Anticancer activity against human SF268 cells; type: functional, cell-based
[9] = test system: MCF7; test: Anticancer activity against human MCF7 cells; type: functional, cell-based

Measured: Activity

COc1ccc(-c2oc3cc(OC)c(OC)c(O)c3c(=O)c2OC)cc1O
not listed: [7] | [8] | [9]
inactive: all other assays above

COc1cc(O)c2c(=O)c(OC)c(-c3ccc(O)c(OC)c3)oc2c1
not listed: [7] | [8] | [9]
inactive: all other assays above

CC(=O)OC[C@@]12CC[C@@H](C(C)C)[C@@H](O)[C@@H]1C(C)=CC(=O)C2
not listed: [7] | [8] | [9]
inactive: all other assays above

CC(=O)O[C@@H]1[C@H](C(C)C)CC[C@@]2(CO)CC(=O)C=C(C)[C@@H]12
inactive: all assays above

COc1cc2oc(-c3ccc(O)c(O)c3)c(OC)c(=O)c2c(O)c1OC
not listed: [7] | [8] | [9]
inactive: all other assays above

CC(=O)OC[C@@]12CC[C@@H](C(C)C)[C@@H](OC(C)=O)[C@@H]1C(C)=CC(=O)C2
inactive: all assays above
